From patent publication US11628160B2, “Compositions and methods for treating brain injury” (Azevan Pharmaceuticals, Inc., priority 2017, dated 2023)

Assays:
[1] = test system: Male Sprague Dawley rats; assay: Motor behavior (balance beam, rotarod); assay type: in vivo, rat
Procedure: EXAMPLE. Momentum exchange impact model. This model features several advantageous translational differences over some head injury models, such as the controlled cortical impact injury model. For example, the head, neck and body can move with impact, and the velocity of head movement and energy transfer can be calculated and scaled mild to provide range from moderate to severe concussions. Studies are conducted with moderate impacts with neuroradiological evidence of contusions. Male rats are concussed twice with one day. Additional details are described in Viano et al., “Evaluation of three animal models for concussion and serious brain injury” Ann Biomed Eng. 40(1):213-26 (2012). […] Sham non-concussed test animals are given vehicle or test compound. Test animals are treated twice daily for 5 consecutive days. At two weeks post concussion cognitive behaviors are assessed, using for example, the Barnes maze and/or novel recognition models. In addition, motor behaviors are assessed, using for example, beam walk and/or rotarod tests. In each case, neuroradiological MRI is also performed. […]

[2] = test system: Male Sprague Dawley rats; assay: Resting state functional connectivity (fMRI); assay type: in vivo, rat; details: Treatment group
Source text: EXAMPLE. Resting state functional connectivity. Resting-state fMRI scan is collected using spin-echo triple-shot EPI sequence (imaging parameters: matrix size=96×96×20, TR/TE=3000/15 msec, voxel size=[…], slice thickness=1 mm. Preprocessing is illustratively accomplished by combining Analysis of Functional NeuroImages (AFNI_17.1.12, http://afni.nimh.nih.gov/afni/), FMRIB Software library (FSL, v5.0.9, http://fsl.fmrib.ox.ac.uk/fsl/), Deformable Registration via Attribute Matching and Mutual-Saliency Weighting (DRAMMS 1.4.1, https://www.cbica.upenn.edu/sbia/software/dramms/index.html) and MATLAB (Mathworks, Natick, Mass.). Brain tissue masks for resting-state functional images are manually drawn using 3DSlicer (https://www.slicer.org/) and applied for skull-stripping. Normalization is completed by registering functional data to the MRI Rat Brain Template (Ekam Solutions LLC, Boston, Mass.) using affine registration through DRAMMS. The region-to-region functional connectivity method is illustratively performed to measure the correlations in spontaneous BOLD fluctuations. A network is comprised of nodes and edges; nodes being the brain region of interest (ROI) and edges being the connections between regions. Nodes are defined using the ROIs segmented from an appropriate MRI RAT Brain Atlas. Illustratively, 171 nodes are defined. Voxel time series data are averaged in each node based on the residual images using the nuisance regression procedure. Pearson's correlation coefficients across all pairs of nodes (14535 pairs for 171 nodes) are computed for each subject among all three groups to assess the interregional temporal correlations. The r-values (ranging from −1 to 1) are z-transformed using the Fisher's Z transform to improve normality. For 171 nodes, 171×171 symmetric connectivity matrices are constructed with each entry representing the strength of edge. Group-level analysis is performed to look at the functional connectivity in controls, one hit and three hit groups. The resulting Z-score matrices from one-group t-tests are clustered using the K-nearest neighbors clustering method to identify how nodes cluster together and form resting state networks. A Z-score threshold of |Z|=2.3 is applied to remove spurious or weak node connections for visualization purposes.
Beginning on postnatal (P)70, animals are divided into 3 groups (n=6-7/group; Sham Control Group (Control, CG), Injury Group (IG), and Treatment Group (TG) and begin their head impact, and drug regimens. All groups are anaesthetized with 4% isoflurane in oxygen, and Injury group and Treatment group receive the first of two total head impacts) using a custom setup from Animal Imaging Research (AIR; Holden, Mass.) on P70. […]

C[C@@H](NC(=O)[C@@H](CC(=O)N1CCC(N2CCCCC2)CC1)N1C(=O)[C@@H](N2C(=O)OC[C@@H]2c2ccccc2)[C@H]1/C=C/c1cccc(I)c1)c1ccccc1 [Example 266]
rotarod latency to fall ([1]; Treatment group, Injury group 69.8±5.5, Control group 105.4±7.6, P=0.2): 84.0 ± 9.0 s | overall motor behavior, Control vs Treatment group ([1]; concussed rats, IP 10 mg/kg twice daily 5 days): not a significant difference in overall motor behavior | connectivity of hippocampus, Area M [2]: hyperconnectivity compared to Injury group and Control group | connectivity of ventral hippocampus, Area G [2]: hyperconnectivity compared to Injury group and Control group | functional connectivity in network circuitry associated with learning, cognition, memory, and attention ([2]; even compared to Control group): enhanced functional connectivity | resting state functional connectivity network ([2]; 166 brain areas): hyperconnectivity
